Laboratory results published in patent US10226041B2, “Compositions and methods for improving the quality of processed sperm” (Inguran, LLC, priority 2011, dated 2019).
Values joined by “and” are separate entries in the source; they are usually repeats but may differ in a detail not shown here. Equal entries are not always repeated.

What was measured:
[1] = test system: slaughterhouse oocytes fertilized with sex sorted sperm; experiment: IVF: development of eggs fertilized with OSR treated sex sorted sperm; type: cell-based, bovine; conditions: 3 step
Description: 1. Oocyte Collection. Collect slaughterhouse oocytes, wash 1× with about 3 mL Hepes washing media and with 1× with TCM-199 (Invitrogen, Carlsbad, Calif.)+10% Fetal Bovine Serum (FBS). Culture in maturation media for 22 hrs in a CO2 incubator at 38.5° C. In one embodiment, the maturation media contains TCM-199, FBS, pyruvate, chorionic gonadotropin (e.g., Chorulon (Intervet, Summit N.J.)), follicle stimulating hormone (FSH) (e.g., Folltropin (Bioniche, Belleville, Canada)), estradiol, and at least one antibiotic. In a further embodiment, Amikacin (Sigma-Aldrich, St. Louis, Mo.) can be used as the antibiotic. In another embodiment, the maturation media may also comprise luteinizing hormone.
2. In Vitro Fertilization. Trim away cumulus cells from matured oocytes. Transfer them to a fertilization dish and return to the CO2 incubator. Thaw frozen semen straws using standard procedures, centrifuge in […], of Pure Sperm gradient (Nidacon, Molndal, Sweden), or a percoll or similar gradient at 2500 RPM for 10 minutes to remove egg components, glycerol and other debris. Remove supernatant, leaving a loose pellet of live sperm. Combine pellets using a small amount of fertilization media and repellet at 1500 RPM for 3 minutes. Carefully remove supernatant. Then gently mix the pellet. After determining the desired insemination dose, inseminate the oocytes by adding sperm to the pellet, then culture in a dish and return to the CO2 incubator for about 18-22 hours.
3. In Vitro Culture. Remove presumptive zygotes from the fertilization dish and transfer into a sterile 1.5 mL eppendorf tube. Allow zygotes to form a loose pellet and remove excess media to form a 1:1 ratio of pellet and solution. Rinse the eppendorf tube with TCM-199, place contents into a dish and wash with BSA media. Then culture presumptive zygotes (discard disfigured oocytes, as well as oocytes with yellow colored cytoplasm or vacuolated cytoplasm) in a dual gas incubator (5% CO2, 5% O2) at 38.5° C. for about 48 hours.
4. Co-Culture. Transfer cleaved zygotes to co-culture dishes comprising the cumulus cells from the mature oocytes and FBS media topped with mineral oil, and incubate in a CO2 incubator at 38.5° C. until needed.
An experiment was designed to test the effect of OSR treated sperm cells on the development of eggs fertilized with those sperm cells. In this experiment, bull semen from two bulls was sex sorted with flow cytometry, with vitamin B12 present at equal concentrations in the media used to stain the sperm cells, in the catch fluid of the collecting vessel and in the cryoprotectant extender prior to freezing the sex sorted sample (3 step). For each bull, three different concentrations of vitamin B12 were tested: 0.05 mg/ml, 0.15 mg/ml and 0.25 mg/ml. The control samples were not treated with vitamin B12.
Slaughterhouse oocytes were collected and washed 1× with about 3 mL Hepes washing media and with 1× with TCM-199+10% FBS. The oocytes were then cultured in maturation media for 22 hrs in a CO2 incubator at 38.5° C. Cumulus cells were trimmed away from matured oocytes, transferred to a fertilization dish, and returned to the CO2 incubator.
Frozen semen straws were thawed using standard procedures and centrifuged in […], of Pure Sperm gradient at 2500 RPM for 10 minutes in order to remove egg, glycerol and other debris. The supernatant was removed, leaving a loose pellet of live sperm. Pellets were combined using a small amount of fertilization media and repelleted at 1500 RPM for 3 minutes. The supernatant was then carefully removed and the pellet gently mixed. After determining the desired insemination dose, the matured oocytes were then inseminated by adding sperm to the pellet, cultured in a dish and returned to the CO2 incubator for about 18-22 hours.
Presumptive zygotes were removed from the fertilization dish and transferred into a sterile 1.5 ml eppendorf tube. […]

sex-sorted sperm cells = experiment: CASA post-thaw motility of sex sorted bull sperm treated with OSR; type: cell-based, bovine; conditions: 3 hr; 1 step-stain (+−−); Bull C (Jersey), Trial 2
[2] = 0.05 mg/ml, Table 4 replicates, Bulls A, B
[3] = 0.5 mg/ml, Table 5 Total/Avg per bull (A Holstein, B Jersey), Holstein bull
[4] = 0.5 mg/ml, Table 5 Total/Avg per bull (A Holstein, B Jersey), Jersey bull
[5] = 0.5 mg/ml, Table 5 replicates, Bull A (Holstein), Bull B (Jersey), Holstein bull
[6] = 0.5 mg/ml, Table 5 replicates, Bull A (Holstein), Bull B (Jersey), Jersey bull

vitamin B12
4-2C, Total/Avg ([1]; 0.05 mg/ml, Table 4 Total/Avg per bull (A, B)): 66 and 63 | 4-2C (zygotes at 2 cell to 4 cell transition 48 hours after IVF) [1, 2]: 20 (2×) and 26 and 18 and 23 and 22 | 8C % (zygotes having 8 cells 48 hours after IVF) [1, 2]: 3.4% and 9.5% and 11.7% and 44.4% and 29.3% and 29.0% | 8C (zygotes with 8 cells 48 hours after IVF) [1, 2]: 3 and 9 and 11 and 40 and 27 (2×) | % Clv (percent cleaved 48 hours after IVF) [1, 2]: 26.4% and 36.8% and 33.0% and 64.4% and 54.3% and 52.7% | Blast % (cultured zygotes resulting in blastocyst formation) [1, 2]: 1.1% and 2.1% and 4.3% and 21.1% and 16.3% and 22.6% | C1 (expanded, hatching and hatched blastocysts 7 days after IVF) [1, 2]: 0 (2×) and 1 and 2 and 4 and 5 | C1− (blastocysts 7 days after IVF) [1, 2]: 0 (2×) and 3 (2×) and 4 and 2 | C2 (early blastocysts and compact morulas 7 days after IVF) [1, 2]: 1 (3×) and 13 (2×) and 9 | Hatch # (embryos shedding the zona, 8.5 days after IVF) [1, 2]: 0 and 1 (2×) and 9 and 7 and 8 | Hatch % (embryos that shed the zona) [1, 2]: 0.0% and 50.0% and 25.0% and 47.4% and 46.7% and 38.1% | Total Embs (total number of blastocysts) [1, 2]: 1 and 2 and 4 and 19 and 15 and 21 | 4-2C, Total/Avg [1, 3]: 72 | 8C %, Total/Avg [1, 3]: 35.1% | 8C, Total/Avg [1, 3]: 99 | C1−, Total/Avg [1, 3]: 17 | C2, Total/Avg [1, 3]: 18 | Hatch #, Total/Avg [1, 3]: 16 | Total Embs, Total/Avg [1, 3]: 41 | 4-2C, Total/Avg [1, 4]: 86 | 8C %, Total/Avg [1, 4]: 35.4% | 8C, Total/Avg [1, 4]: 104 | C1−, Total/Avg [1, 4]: 22 | C2, Total/Avg [1, 4]: 13 | Hatch #, Total/Avg [1, 4]: 20 | Total Embs, Total/Avg [1, 4]: 52 | 4-2C (zygotes at 2 cell to 4 cell transition 48 hours after IVF) [1, 5]: 25 and 29 and 18 | 8C % (zygotes having 8 cells 48 hours after IVF) [1, 5]: 36.2% and 31.6% and 37.6% | 8C (zygotes with 8 cells 48 hours after IVF) [1, 5]: 34 and 30 and 35 | % Clv (percent cleaved 48 hours after IVF) [1, 5]: 62.8% and 62.1% and 57.0% | Blast % (cultured zygotes resulting in blastocyst formation) [1, 5]: 6.4% and 15.8% and 21.5% | C1 (expanded, hatching and hatched blastocysts 7 days after IVF) [1, 5]: 0 and 1 and 5 | C1− (blastocysts 7 days after IVF) [1, 5]: 3 and 7 (2×) | C2 (early blastocysts and compact morulas 7 days after IVF) [1, 5]: 3 and 7 and 8 | Hatch # (embryos shedding the zona, 8.5 days after IVF) [1, 5]: 1 and 4 and 11 | Hatch % (embryos that shed the zona) [1, 5]: 16.7% and 26.7% and 55.0% | Total Embs (total number of blastocysts) [1, 5]: 6 and 15 and 20 | 4-2C (zygotes at 2 cell to 4 cell transition 48 hours after IVF) [1, 6]: 40 and 31 and 15 | 8C % (zygotes having 8 cells 48 hours after IVF) [1, 6]: 34.0% and 25.3% and 46.5% | 8C (zygotes with 8 cells 48 hours after IVF) [1, 6]: 34 and 24 and 46 | % Clv (percent cleaved 48 hours after IVF) [1, 6]: 74.0% and 57.9% and 61.6% | Blast % (cultured zygotes resulting in blastocyst formation) [1, 6]: 11.0% and 24.2% and 18.2% | C1 (expanded, hatching and hatched blastocysts 7 days after IVF) [1, 6]: 4 and 5 and 8 | C1− (blastocysts 7 days after IVF) [1, 6]: 6 and 11 and 5 | C2 (early blastocysts and compact morulas 7 days after IVF) [1, 6]: 1 and 7 and 5 | Hatch # (embryos shedding the zona, 8.5 days after IVF) [1, 6]: 5 and 6 and 9 | Hatch % (embryos that shed the zona) [1, 6]: 45.5% and 26.1% and 50.0% | Total Embs (total number of blastocysts) [1, 6]: 11 and 23 and 18 | % Motility (sex-sorted sperm cells): 37%
